This note sets out measurements from patent publication US8163921B2, “Hepatitis C virus inhibitors” (Bristol-Myers Squibb Company, priority 2008, dated 2012).

Assay [1] concerns the target T1, HCV NS3/4A protease complex, BMS strain (UniProt P27958, C1454S/C1711G, species not given).
T1 construct: other: HCV NS3/4A enzyme assay; class symbols; numeric values; fused on or other part: three-lysine solubilising tail at the C-terminus of NS4A; purified on Ni-NTA from the pET21b vector (His tag implied)
Kind of assay: FRET peptide assay to monitor HCV NS3/4A proteolytic activity (BMS strain). The format is biochemical, HCV genotype 1a. The conditions noted are these: read-out: IC50 Range, HCV NS3/4A enzyme assay. In short, it runs like this:
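Recombinant HCV NS3/4A protease complex (BMS strain, genotype 1a), 2-3 nM final (300 pM with 50 μg/ml BSA for very potent compounds), incubated with RET S1 EDANS/DABCYL depsipeptide substrate at 2 μM final. Buffer: 50 mM HEPES pH 7.5, 0.15 M NaCl, 0.1% Triton, 15% glycerol, 10 mM βME. Cleavage followed in real time by fluorescence.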

The subject of assay [2] is HCV replicon in HUH-7 cells. Kind of assay: HCV replicon FRET assay. The format is cell-based, HCV strain 1b. The conditions noted are these: Hepatitis C virus.
The mark [3] stands for this setting: Huh-7, HCV replicon cell assay, numeric values, read-out: EC50 Range.

pEC50, pIC50: −log10 of the molar value. Where two headings read alike, the source gives them in different places.

The term pIC50 denotes −log10 of the IC50, conventionally taken in molar units. The term pEC50 denotes the negative decadic logarithm of the EC50, by convention in mol/L. For the compound `C=C[C@@H]1C[C@]1(NC(=O)[C@@H]1C[C@@H](Oc2ncc(OC)c3ccc(Cl)cc23)CN1C(=O)[C@@H](Nc1nc(-c2c(F)c(F)c(F)c(F)c2F)cs1)C(C)(C)C)C(=O)NS(=O)(=O)C1CC1` [Example 47], the negative logarithm of the IC50 (pIC50) in assay [1] (class symbols) was 7.70 to 9.00. For the same compound, the negative logarithm of the EC50 (pEC50) in assay [2] (Huh-7, read-out: EC50 Range) is 7.30 to 9.00.

Turning to `C=C[C@@H]1C[C@]1(NC(=O)[C@@H]1C[C@@H](Oc2ncc(OC)c3ccc(Cl)cc23)CN1C(=O)[C@@H](Nc1nc(-c2cccc(Cl)c2)cs1)C(C)(C)C)C(=O)NS(=O)(=O)C1CC1` [Example 48], the pIC50 in assay [1] (class symbols) was 7.70 to 9.00. Besides, in assay [2] (Huh-7, read-out: EC50 Range), the pEC50 is 7.30 to 9.00.

`C=C[C@@H]1C[C@]1(NC(=O)[C@@H]1C[C@@H](Oc2ncc(OC)c3ccc(Cl)cc23)CN1C(=O)[C@@H](Nc1nc(-c2ccccc2Cl)cs1)C(C)(C)C)C(=O)NS(=O)(=O)C1CC1` [Example 49]: in assay [1] (class symbols), the negative-log IC50 (pIC50) is 7.70 to 9.00. In addition, the negative logarithm of the EC50 (pEC50) in assay [2] (Huh-7, read-out: EC50 Range) is 7.30 to 9.00.

Turning to `C=C[C@@H]1C[C@]1(NC(=O)[C@@H]1C[C@@H](Oc2ncc(OC)c3ccc(Cl)cc23)CN1C(=O)[C@@H](Nc1nc(-c2ccccc2O)cs1)C(C)(C)C)C(=O)NS(=O)(=O)C1CC1` [Example 50], in assay [1] (numeric values), the negative logarithm of the IC50 (pIC50) was 7.41. The negative logarithm of the EC50 (pEC50) in assay [2] (setting [3]) was 7.72.

For the compound `C=C[C@@H]1C[C@]1(NC(=O)[C@@H]1C[C@@H](Oc2ncc(OC)c3ccc(Cl)cc23)CN1C(=O)[C@@H](Nc1nc(-c2ccc(OC)cc2F)cs1)C(C)(C)C)C(=O)NS(=O)(=O)C1CC1` [Example 51], in assay [1] (class symbols), the negative logarithm of the IC50 (pIC50) is 7.70 to 9.00. In addition, the negative logarithm of the EC50 (pEC50) in assay [2] (Huh-7, read-out: EC50 Range) was 7.30 to 9.00.

Turning to `C=C[C@@H]1C[C@]1(NC(=O)[C@@H]1C[C@@H](Oc2ncc(OC)c3ccc(Cl)cc23)CN1C(=O)[C@@H](Nc1nc(-c2ccc(F)c(Cl)c2)cs1)C(C)(C)C)C(=O)NS(=O)(=O)C1CC1` [Example 52], the pIC50 in assay [1] (class symbols) is 7.70 to 9.00. For the same compound, the pEC50 in assay [2] (Huh-7, read-out: EC50 Range) is 7.30 to 9.00.

Take `C=C[C@@H]1C[C@]1(NC(=O)[C@@H]1C[C@@H](Oc2ncc(OC)c3ccc(Cl)cc23)CN1C(=O)[C@@H](Nc1nc(-c2cc(Cl)cc(Cl)c2F)cs1)C(C)(C)C)C(=O)NS(=O)(=O)C1CC1` [Example 53]: the pIC50 in assay [1] (numeric values) is 7.77. The negative logarithm of the EC50 (pEC50) in assay [2] (setting [3]) is 7.69.

With `C=C[C@@H]1C[C@]1(NC(=O)[C@@H]1C[C@@H](Oc2ncc(OC)c3ccc(Cl)cc23)CN1C(=O)[C@@H](Nc1nc(-c2cc(C)ccc2OC)cs1)C(C)(C)C)C(=O)NS(=O)(=O)C1CC1` [Example 54], in assay [1] (class symbols), the negative-log IC50 (pIC50) was 7.70 to 9.00. The pEC50 in assay [2] (Huh-7, read-out: EC50 Range) is 7.30 to 9.00.

As to `C=C[C@@H]1C[C@]1(NC(=O)[C@@H]1C[C@@H](Oc2ncc(OC)c3ccc(Cl)cc23)CN1C(=O)[C@@H](Nc1nc(-c2cc(Cl)cc(Cl)c2OC)cs1)C(C)(C)C)C(=O)NS(=O)(=O)C1CC1` [Example 55], the pIC50 in assay [1] (class symbols) is 7.70 to 9.00. Besides, in assay [2] (Huh-7, read-out: EC50 Range), the pEC50 was 7.30 to 9.00.

With `C=C[C@@H]1C[C@]1(NC(=O)[C@@H]1C[C@@H](Oc2ncc(OC)c3ccc(Cl)cc23)CN1C(=O)[C@@H](Nc1nc(-c2cc(F)ccc2OC)cs1)C(C)(C)C)C(=O)NS(=O)(=O)C1CC1` [Example 56], in assay [1] (class symbols), the pIC50 was 7.70 to 9.00. For the same compound, in assay [2] (Huh-7, read-out: EC50 Range), the pEC50 was 7.30 to 9.00.

Turning to `C=C[C@@H]1C[C@]1(NC(=O)[C@@H]1C[C@@H](Oc2ncc(OC)c3ccc(Cl)cc23)CN1C(=O)[C@@H](Nc1nc(-c2c(Cl)cccc2Cl)cs1)C(C)(C)C)C(=O)NS(=O)(=O)C1CC1` [Example 57], the pIC50 in assay [1] (class symbols) is 7.70 to 9.00. For the same compound, the negative logarithm of the EC50 (pEC50) in assay [2] (Huh-7, read-out: EC50 Range) was 7.30 to 9.00.

Turning to `C=C[C@@H]1C[C@]1(NC(=O)[C@@H]1C[C@@H](Oc2ncc(OC)c3ccc(Cl)cc23)CN1C(=O)[C@@H](Nc1nc(-c2c(OC)cccc2OC)cs1)C(C)(C)C)C(=O)NS(=O)(=O)C1CC1` [Example 58], the pIC50 in assay [1] (class symbols) was 7.70 to 9.00. Further, the pEC50 in assay [2] (Huh-7, read-out: EC50 Range) is 7.30 to 9.00.

In the case of `C=C[C@@H]1C[C@]1(NC(=O)[C@@H]1C[C@@H](Oc2ncc(OC)c3ccc(Cl)cc23)CN1C(=O)[C@@H](Nc1nc(-c2cc(Cl)c(C)cc2OC)cs1)C(C)(C)C)C(=O)NS(=O)(=O)C1CC1` [Example 59], the negative logarithm of the IC50 (pIC50) in assay [1] (class symbols) is 7.70 to 9.00. In assay [2] (Huh-7, read-out: EC50 Range), the pEC50 is 7.30 to 9.00.

On to `C=C[C@@H]1C[C@]1(NC(=O)[C@@H]1C[C@@H](Oc2ncc(OC)c3ccc(Cl)cc23)CN1C(=O)[C@@H](Nc1nc(-c2cc(-c3ccccc3)no2)cs1)C(C)(C)C)C(=O)NS(=O)(=O)C1CC1` [Example 85], for which the negative logarithm of the IC50 (pIC50) in assay [1] (class symbols) was 7.70 to 9.00. For the same compound, in assay [2] (Huh-7, read-out: EC50 Range), the negative-log EC50 (pEC50) was 7.30 to 9.00.

Consider `C=C[C@@H]1C[C@]1(NC(=O)[C@@H]1C[C@@H](Oc2ncc(OC)c3ccc(Cl)cc23)CN1C(=O)[C@@H](Nc1nc(-c2cc(C)c(Cl)cc2F)cs1)C(C)(C)C)C(=O)NS(=O)(=O)C1CC1` [Example 92], for which, in assay [1] (class symbols), the pIC50 is 7.70 to 9.00. Also, in assay [2] (Huh-7, read-out: EC50 Range), the pEC50 is 7.30 to 9.00.

Turning to `C=C[C@@H]1C[C@]1(NC(=O)[C@@H]1C[C@@H](Oc2ncc(OC)c3ccc(Cl)cc23)CN1C(=O)[C@@H](Nc1nc(-c2ccsc2)cs1)C(C)(C)C)C(=O)NS(=O)(=O)C1CC1` [Example 93], the pIC50 in assay [1] (class symbols) was 7.70 to 9.00. The negative-log EC50 (pEC50) in assay [2] (Huh-7, read-out: EC50 Range) was 7.30 to 9.00.

As for `COc1cnc(O[C@@H]2C[C@@H](C(=O)N[C@]3(C(=O)NS(=O)(=O)C4CC4)C[C@H]3CC(F)F)N(C(=O)[C@@H](Nc3nc(-c4ccc(F)c(C(F)(F)F)c4)cs3)C(C)(C)C)C2)c2cc(Cl)ccc12` [Example 97, (2S,4R)-4-(7-chloro-4-methoxyisoquinolin-1-yloxy)-N-((1R,2S)-1-(cyclopropylsulfonylcarbamoyl)-2-(2,2-difluoroethyl)cyclopropyl)-1-((S)-2-(4-(4-fluoro-3-(trifluoromethyl)phenyl)thiazol-2-ylamino)-3,3-dimethylbutanoyl)pyrrolidine-2-carboxamide], the pIC50 in assay [1] (class symbols) was 7.70 to 9.00. The pEC50 in assay [2] (Huh-7, read-out: EC50 Range) is 7.30 to 9.00.

Regarding `COc1cnc(O[C@@H]2C[C@@H](C(=O)N[C@]3(C(=O)NS(=O)(=O)C4CC4)C[C@H]3CC(F)F)N(C(=O)[C@@H](Nc3nc(-c4cc(-c5ccc(Cl)cc5)no4)cs3)C(C)(C)C)C2)c2cc(Cl)ccc12` [Example 98], the pIC50 in assay [1] (class symbols) was 7.70 to 9.00. In assay [2] (Huh-7, read-out: EC50 Range), the pEC50 is 7.30 to 9.00.

As to `COc1cnc(O[C@@H]2C[C@@H](C(=O)N[C@]3(C(=O)NS(=O)(=O)C4CC4)C[C@H]3CC(F)F)N(C(=O)[C@@H](Nc3nc(-c4ccc(Oc5ccccc5)cc4)cs3)C(C)(C)C)C2)c2cc(Cl)ccc12` [Example 99], in assay [1] (class symbols), the pIC50 is 6.70 to 7.70. In addition, the pEC50 in assay [2] (Huh-7, read-out: EC50 Range) is 6.70 to 7.30.

As for `C=C[C@@H]1C[C@]1(NC(=O)[C@@H]1C[C@@H](Oc2ncc(OC)c3ccc(Cl)cc23)CN1C(=O)C(C)Nc1nnnn1-c1ccccc1)C(=O)NS(=O)(=O)C1CC1` (stereo partly shown) [Example 100], the pIC50 in assay [1] (numeric values) is 6.10. Further, the pEC50 in assay [2] (setting [3]) is 6.48.
